Molecules are shown by their SMILES.

Three compounds from patent US8637237B2, “Methods, compositions, and systems for the identification of species-specific or developmental stage-specific insecticides” (The University of North Carolina at Greensboro, priority 2003, dated 2014) can be followed below.

The target of assay [1] is T1, EcRA/USP (Drosophila melanogaster, UniProt P34021).
T1 construct: The plasmid encodes a version of EcRA that includes 849 amino acids, and deletes the F domain; expressed in transfected cells; host or cells: CHO
T1 sequence (P34021 1-849 isoform P34021-2): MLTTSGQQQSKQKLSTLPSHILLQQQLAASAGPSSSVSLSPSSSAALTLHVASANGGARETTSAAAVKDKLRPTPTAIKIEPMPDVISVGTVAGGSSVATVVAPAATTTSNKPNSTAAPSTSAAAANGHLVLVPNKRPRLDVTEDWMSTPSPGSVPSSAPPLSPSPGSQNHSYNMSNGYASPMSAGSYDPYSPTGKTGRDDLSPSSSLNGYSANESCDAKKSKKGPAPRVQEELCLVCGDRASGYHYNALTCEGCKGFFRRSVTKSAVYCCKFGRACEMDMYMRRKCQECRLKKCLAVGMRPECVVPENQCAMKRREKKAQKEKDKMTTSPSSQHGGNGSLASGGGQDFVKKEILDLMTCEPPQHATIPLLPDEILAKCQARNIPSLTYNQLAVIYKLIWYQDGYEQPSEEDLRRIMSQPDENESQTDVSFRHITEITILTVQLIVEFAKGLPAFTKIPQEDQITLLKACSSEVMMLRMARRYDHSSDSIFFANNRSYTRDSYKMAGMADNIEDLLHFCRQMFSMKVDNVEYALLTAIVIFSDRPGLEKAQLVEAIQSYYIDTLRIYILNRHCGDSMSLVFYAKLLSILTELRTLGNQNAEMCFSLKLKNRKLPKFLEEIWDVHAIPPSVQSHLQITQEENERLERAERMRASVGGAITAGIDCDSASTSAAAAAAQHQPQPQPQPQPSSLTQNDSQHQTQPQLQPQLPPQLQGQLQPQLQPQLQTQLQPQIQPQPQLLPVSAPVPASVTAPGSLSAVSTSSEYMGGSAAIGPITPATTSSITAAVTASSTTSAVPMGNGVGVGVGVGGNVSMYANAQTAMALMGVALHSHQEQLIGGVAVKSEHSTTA
T1 sequence (O76202 192-472 partner): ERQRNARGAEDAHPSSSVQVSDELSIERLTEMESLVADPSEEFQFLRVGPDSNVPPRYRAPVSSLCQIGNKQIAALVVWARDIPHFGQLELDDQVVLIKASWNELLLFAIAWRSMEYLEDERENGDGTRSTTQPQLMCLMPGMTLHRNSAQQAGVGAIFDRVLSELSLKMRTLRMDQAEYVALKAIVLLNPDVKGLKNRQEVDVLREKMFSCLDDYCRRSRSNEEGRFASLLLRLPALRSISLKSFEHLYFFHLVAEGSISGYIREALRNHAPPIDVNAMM
Description: EcRA isoform with USP (VP16CfUSP), (EcRE)5-ΔMTV-LUC in CHO cells. The class given is cell-based. On the procedure: (§1) These experiments employed a mammalian cell culture system using Chinese hamster ovary cells (CHO) to evaluate the transcriptional function of Drosophila melanogaster EcR and USP using methods described previously (U.S. Patent Application Publication No: 2005/0049230; Henrich et al, 2003). Cells were seeded in 6-well polypropylene culture plates (Falcon) with 10^5 cells per well on the day prior to transfection. Transfection was subsequently performed using either calcium phosphate (Kitareewan et al., 1996, Mol. Biol. Cell, 7:1153-1196) or a GenePorter reagent (Gene Therapy Systems, Inc; San Diego, Calif.) following manufacturer's protocols. Each well received 1.25 μg of (EcRE)5-ΔMTV-CAT (five copies of the hsp27 EcRE inserted into an mouse mammary tumor virus (MTV) promoter upstream of the chloramphenicol acetyltransferase (CAT) gene) or (EcRE)5-ΔMTV-LUC (the same promoter attached to firefly luciferase), 1.25 μg of pCH111 (SV40 early promoter linked to the β-galactosidase gene) to normalize CAT activity, and 0.25 μg of each expression plasmid (EcR, FXR, RXR, USP) that was tested. The cells were incubated with plasmid DNA for seven hours and then washed with 1×PBS. Muristerone A (murA; Alexis Biochemicals) or 20-hydroxyecdysone (20E; Sigma) dissolved in ethanol to a concentration of 10 mM was diluted as necessary to the final assay concentration (FAC) in 2 ml of fresh incubation medium that was then applied to the cells. Similarly, JHIII (Sigma) was dissolved in dimethyl sulfoxide (DMSO) to a concentration of […] and diluted into the incubation medium to its final assay concentration (20, 40, 80, 160 μM). […] A corresponding volume of ethanol and DMSO were added to control cells for all experiments. For all experiments, the cells were allowed to incubate with the medium for 24 hours before collection and cell lysates were prepared by described methods (Kitareewan et al., 1996). Both β-galactosidase and CAT reporter activity were measured based on previously used methods (Kitareewan et al, 1996). Luciferase assays using luciferrin followed the specifications of the manufacturer.
Transcriptional activity, measured as ^14C-chloramphenicol counts (for measuring CAT activity) or relative luciferase activity (RLU) was quantified for each cell lysate. The counts were then normalized by adjusting for differences in β-galactosidase activity, since β-galactosidase expression is controlled by a constitutive promoter and provides an estimate of cell mass. Data were normalized as fold-induction based on differences in reporter gene activity between hormonally treated and control cells.

Assay [2] has as its target T2, FXR and USP (Rattus norvegicus, UniProt Q62735).
T2 construct: expressed in transfected cells; host or cells: CHO
T2 sequence (Q62735 1-469): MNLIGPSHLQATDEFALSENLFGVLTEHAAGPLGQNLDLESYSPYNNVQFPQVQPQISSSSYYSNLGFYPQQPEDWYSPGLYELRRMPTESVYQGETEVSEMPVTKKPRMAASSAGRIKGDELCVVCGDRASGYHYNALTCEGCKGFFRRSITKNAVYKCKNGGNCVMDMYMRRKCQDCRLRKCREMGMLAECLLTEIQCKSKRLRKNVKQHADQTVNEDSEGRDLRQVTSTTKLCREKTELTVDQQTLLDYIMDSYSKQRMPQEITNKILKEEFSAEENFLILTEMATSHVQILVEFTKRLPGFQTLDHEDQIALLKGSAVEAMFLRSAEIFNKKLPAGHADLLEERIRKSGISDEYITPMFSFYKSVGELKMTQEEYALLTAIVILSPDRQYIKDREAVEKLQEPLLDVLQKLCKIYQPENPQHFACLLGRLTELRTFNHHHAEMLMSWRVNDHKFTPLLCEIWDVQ
Put plainly: FXR with USP, reporter in CHO cells. It counts as cell-based. The method, then: as §1, with “Luciferase assays using luciferrin followed the specifications of the manufacturer.” left out

In the case of `CC(C)(O)CC[C@@H](O)[C@](C)(O)[C@H]1CC[C@@]2(O)C3=CC(=O)[C@@H]4C[C@@H](O)[C@@H](O)C[C@]4(C)[C@H]3CC[C@]12C` [20E, 20-hydroxyecdysone], the “transcriptional response to 20E” value in assay [1] (EcRA + VP16CfUSP, 10 μM 20E) is “consistent and discernible transcriptional response”. In addition, the “20E (inducibility)” value in assay [1] (EcRA/USP, 10 μM 20E) was “+ ((+) designates a change in transcriptional level that exceeds 2.5-fold)”. In addition, the “elevation of FXR-mediated activity by ecdysteroid added with JHIII” value in assay [2] is listed as “no elevation”.

Consider `COC(=O)/C=C(\C)CC/C=C(\C)CC[C@H]1OC1(C)C` [JHIII, juvenile hormone III], for which, in assay [1] (EcRA + VP16CfUSP, 80 μM JHIII with 0.1 μM murA), the “potentiation of murA response by JHIII” value is “potentiated”. Besides, the “MurA + JHIII (JHIII potentiation)” value in assay [1] (EcRA/USP, 0.1 μM murA + 80 μM JHIII) is recorded as “+ ((+) indicates observed potentiation that exceeds 2-fold above the levels observed with ecdysteroid alone)”. Moreover, the “response of FXR and USP to JHIII” value in assay [2] (CHO cells) is recorded as “low level response”.

As for `CC(C)CC[C@@H](O)[C@](C)(O)[C@H]1CC[C@@]2(O)C3=CC(=O)[C@]4(O)C[C@@H](O)[C@@H](O)C[C@]4(C)[C@H]3[C@H](O)C[C@]12C` [murA, muristerone A], the “induction by murA” value in assay [1] (EcRA + VP16CfUSP, 1 μM murA) is on record as 30-40 fold. Moreover, the “MurA (inducibility)” value in assay [1] (EcRA/USP, 0.1 μM murA) was “+ ((+) designates a change in transcriptional level that exceeds 2.5-fold)”. In addition, the “elevation of FXR-mediated activity by ecdysteroid added with JHIII” value in assay [2] is “no elevation”.
